Experimental data: US12173018B2, “Penicillin-binding protein inhibitors” (priority 2018, dated 2024)

What was measured:
K. pneumoniae UMM = assay: microbe, parasite or virus in culture; format: cell-based; settings: Klebsiella pneumoniae; K. pneumoniae UMM producing SHV-5 and KPC-2; read-out: MIC K. pneumoniae UMM
Method in brief: (§1)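 Strains are tested by standard CLSI broth microdilution. Log-phase cells, diluted by OD600 to 5×10^5 CFU/mL, meet 2-fold compound series and incubate 16-20 hours at 37° C before the lowest growth-free concentration is recorded.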

E. coli 901C = assay: microbe, parasite or virus in culture; format: cell-based; settings: Escherichia coli; hyper-permeable E. coli 901C, broth microdilution; read-out: MIC E. coli 901C
Method in brief: as §1

P. aeruginosa ATCC 35151 = assay: microbe, parasite or virus in culture; format: cell-based; settings: Pseudomonas aeruginosa, ATCC35151; hyper-permeable P. aeruginosa ATCC 35151; read-out: MIC P. aeruginosa ATCC 35151
Method in brief: as §1

E. coli D22 = assay: microbe, parasite or virus in culture; format: cell-based; settings: Escherichia coli; hyper-permeable E. coli D22, broth microdilution; read-out: MIC E. coli D22
Method in brief: as §1

[1] = test system: P. aeruginosa (ΔmexAB-oprM); assay: microbe, parasite or virus in culture; format: cell-based; settings: Pseudomonas aeruginosa, read-out: MIC P. aeruginosa ΔmexAB-OprM
Method in brief: as §1

K. pneumoniae SI-117 = assay: microbe, parasite or virus in culture; format: cell-based; settings: Klebsiella pneumoniae, SI117, read-out: MIC K. pneumoniae SI-117
Method in brief: as §1

E. coli AG100A = assay: microbe, parasite or virus in culture; format: cell-based; settings: Escherichia coli, read-out: MIC E. coli AG100A
Method in brief: as §1

K. pneumoniae 848844 = assay: microbe, parasite or virus in culture; format: cell-based, Klebsiella pneumoniae; settings: Klebsiella pneumoniae; K. pneumoniae 848844 producing SHV-11 and KPC-2; read-out: MIC K. pneumoniae 848844
Method in brief: as §1

A. baumannii ATCC 19606 = assay: Broth microdilution MIC, A. baumannii ATCC 19606; format: cell-based; settings: Acinetobacter baumannii, ATCC19606, read-out: MIC A. baumannii ATCC 19606
Method in brief: as §1

E. coli AG100 = assay: Broth microdilution MIC, E. coli AG100 (wild-type parent); format: cell-based; settings: Escherichia coli; wild-type parent E. coli AG100, broth microdilution; read-out: MIC E. coli AG100
Method in brief: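 Broth microdilution in cation-supplemented Mueller-Hinton broth, 2-fold serial compound dilutions, inoculum 5×10^5 CFU/mL from 3-5 h log culture.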

P. aeruginosa ATCC 27853 = assay: Broth microdilution MIC, P. aeruginosa ATCC 27853; format: cell-based; settings: Pseudomonas aeruginosa, ATCC27853, read-out: MIC P. aeruginosa ATCC 27853
Method: To determine the ability of test compounds to potentiate the inhibition of the growth of bacterial strains, classic cell based broth microdilution minimum inhibitory concentration (MIC) assays were employed. MIC assays are performed according to CLSI methods except where otherwise noted (CLSI, 2011 and CLSI, 2009). The reference type strain E. coli ATCC 25922, the wild-type parent strain E. coli AG100, the hyper-permeable E. coli 901C and E. coli D22 and the E. coli AG100A strain lacking the acrAB efflux pump encoding genes were used to determine the ability of the PBP inhibitors to penetrate the outer membrane of gram-negative bacteria and inhibit bacterial growth. […] The P. aeruginosa PAO1, P. aeruginosa ATCC 27853 and A. baumannii ATCC 19606, along with the hyper-permeable P. aeruginosa ATCC 35151 and an engineered efflux pump-compromised strain of P. aeruginosa (ΔmexAB-oprM) were used to determine the ability of PBP inhibitors to penetrate the outer membrane of P. aeruginosa and A. baumannii and assess antibacterial activity against these important gram-negative organisms.
Briefly, cryo-preserved bacterial cultures of challenge strains are streaked for isolation on appropriate agar medium, in this case Mueller Hinton II agar. Following incubation to allow growth of the colonies, plates are sealed with parafilm and stored refrigerated for up to two weeks. For preparation of assay inoculum and to ensure low variability, at least 5 colonies are picked from the agar plates with an inoculating loop and aseptically transferred to a culture tube containing 3 mL of Mueller-Hinton Broth (supplemented with divalent cations to required levels based on Manufacturers' certification). The broth culture is grown for 3-5 hours at 37° C. with shaking at 200 rpm. Meanwhile, 2-fold serial dilutions of test compounds are conducted in a 96 well plate with a final volume of 75 μL per well at 2-fold the final desired concentration. After the dilution plates are set up the growing cultures are then diluted in a cuvette containing MH II broth and the optical density is measured at 600 nm. The Inoculum is diluted such that 75 μL of this culture in Mueller-Hinton Broth results in a starting bacterial concentration of 5×10^5 CFU/mL when added to the dilution plates. The plates are incubated for 16-20 hours at 37° C. The MIC values are read visually as the lowest concentration well with no bacterial growth.

E. coli ATCC 25922 = assay: Broth microdilution MIC, E. coli ATCC 25922; format: cell-based; settings: Escherichia coli, ATCC25922, read-out: MIC E. coli 25922
Method in brief: as §1

Row | SMILES | MIC (K. pneumoniae UMM) [µg/mL] | MIC (E. coli 901C) [µg/mL] | MIC (P. aeruginosa ATCC 35151) [µg/mL] | MIC (E. coli D22) [µg/mL] | MIC [1] [µg/mL] | MIC (K. pneumoniae SI-117) [µg/mL] | MIC (E. coli AG100A) [µg/mL] | MIC (K. pneumoniae 848844) [µg/mL] | MIC (A. baumannii ATCC 19606) [µg/mL] | MIC (E. coli AG100) [µg/mL] | MIC (P. aeruginosa ATCC 27853) [µg/mL] | MIC (E. coli ATCC 25922) [µg/mL]
1 | CNCCN1CCN(C(=O)N[C@@H](C(=O)N[C@H]2Cc3ccc(F)c(C(=O)O)c3OB2O)c2ccc(O)c(O)c2Cl)C(=O)C1=O [Example 242, (R)-3-((R)-2-(2-chloro-3,4-dihydroxyphenyl)-2-(4-(2-(methylamino)ethyl)-2,3-dioxopiperazine-1-carboxamido)acetamido)-7-fluoro-2-hydroxy-3,4-dihydro-2H-benzo[e][1,2]oxaborinine-8-carboxylic acid] | 0.5 to 1 | 0.5 to 1 | < 0.25 | 0.5 to 1 | < 0.25 | 2 to 4 | 0.5 to 1 | 0.5 to 1 | 0.5 to 1 | 0.5 to 1 | 0.5 to 1 | 8 to 16
2 | CC(=O)NCCN1CCN(C(=O)NC(C(=O)N[C@H]2Cc3ccc(F)c(C(=O)O)c3OB2O)c2ccc(O)c(O)c2Cl)C(=O)C1=O (stereo partly drawn) [Example 243, (3R)-3-(2-(4-(2-acetamidoethyl)-2,3-dioxopiperazine-1-carboxamido)-2-(2-chloro-3,4-dihydroxyphenyl)acetamido)-7-fluoro-2-hydroxy-3,4-dihydro-2H-benzo[e][1,2]oxaborinine-8-carboxylic acid] | 2 to 4 | 0.5 to 1 | < 0.25 | 2 to 4 | < 0.25 | 2 to 4 | 0.5 to 1 | 2 to 4 | 0.5 to 1 | 2 to 4 | < 0.25 | 8 to 16
3 | NS(=O)(=O)NCCN1CCN(C(=O)NC(C(=O)N[C@H]2Cc3ccc(F)c(C(=O)O)c3OB2O)c2ccc(O)c(O)c2Cl)C(=O)C1=O (stereo partly drawn) [Example 244, (3R)-3-(2-(2-chloro-3,4-dihydroxyphenyl)-2-(2,3-dioxo-4-(2-(sulfamoylamino)ethyl)piperazine-1-carboxamido)acetamido)-7-fluoro-2-hydroxy-3,4-dihydro-2H-benzo[e][1,2]oxaborinine-8-carboxylic acid] | 0.5 to 1 | 0.5 to 1 | < 0.25 | 0.5 to 1 | < 0.25 | 2 to 4 | 0.5 to 1 | 2 to 4 | < 0.25 | 2 to 4 | < 0.25 | 8 to 16
4 | CCN1CC(C)(C)N(C(=O)NC(C(=O)N[C@H]2Cc3cccc(C(=O)O)c3OB2O)c2ncc(O)cc2F)C(=O)C1=O (stereo partly drawn) [Example 245, (3R)-3-(2-(4-ethyl-2,2-dimethyl-5,6-dioxopiperazine-1-carboxamido)-2-(3-fluoro-5-hydroxypyridin-2-yl)acetamido)-2-hydroxy-3,4-dihydro-2H-benzo[e][1,2]oxaborinine-8-carboxylic acid] | > 128 | 8 to 16 | 32 to 64 | > 128 | > 128 | > 128 | 32 to 64 | > 128 | > 128 | > 128 | > 128 | > 128
5 | C[C@H]1CN(CCN)C(=O)C(=O)N1C(=O)NC(C(=O)N[C@H]1Cc2cccc(C(=O)O)c2OB1O)c1ccc(O)c(O)c1Cl (stereo partly drawn) [Example 248, (3R)-3-(2-((S)-4-(2-aminoethyl)-6-methyl-2,3-dioxopiperazine-1-carboxamido)-2-(2-chloro-3,4-dihydroxyphenyl)acetamido)-2-hydroxy-3,4-dihydro-2H-benzo[e][1,2]oxaborinine-8-carboxylic acid] | 2 to 4 | 0.5 to 1 | < 0.25 | 2 to 4 | < 0.25 | 2 to 4 | 0.5 to 1 | 2 to 4 | 0.5 to 1 | 2 to 4 | 32 to 64 | 8 to 16
6 | O=C(O)CN1CCN(C(=O)NC(C(=O)N[C@H]2Cc3cccc(C(=O)O)c3OB2O)c2ccc(O)c(O)c2Cl)C(=O)C1=O (stereo partly drawn) [Example 249, (3R)-3-(2-(4-(carboxymethyl)-2,3-dioxopiperazine-1-carboxamido)-2-(2-chloro-3,4-dihydroxyphenyl)acetamido)-2-hydroxy-3,4-dihydro-2H-benzo[e][1,2]oxaborinine-8-carboxylic acid] | 8 to 16 | 2 to 4 | < 0.25 | 8 to 16 | < 0.25 | 8 to 16 | 8 to 16 | 2 to 4 | 0.5 to 1 | 8 to 16 | 0.5 to 1 | 32 to 64
7 | C[C@H]1CN(CCN)C(=O)C(=O)N1C(=O)N[C@@H](C(=O)N[C@H]1Cc2ccc(F)c(C(=O)O)c2OB1O)c1ccc(O)c(O)c1Cl [Example 250, (R)-3-((R)-2-((S)-4-(2-aminoethyl)-6-methyl-2,3-dioxopiperazine-1-carboxamido)-2-(2-chloro-3,4-dihydroxyphenyl)acetamido)-7-fluoro-2-hydroxy-3,4-dihydro-2H-benzo[e][1,2]oxaborinine-8-carboxylic acid] | 0.5 to 1 | 0.5 to 1 | < 0.25 | 0.5 to 1 | < 0.25 | 2 to 4 | 0.5 to 1 | 0.5 to 1 | < 0.25 | 0.5 to 1 | 0.5 to 1 | 2 to 4
8 | CCN1CCN(C(=O)N[C@@H](C(=O)N[C@H]2Cc3ccc(F)c(C(=O)O)c3OB2O)c2c(F)cc(O)c(O)c2Cl)C(=O)C1=O [Example 251, (R)-3-((R)-2-(2-chloro-6-fluoro-3,4-dihydroxyphenyl)-2-(4-ethyl-2,3-dioxopiperazine-1-carboxamido)acetamido)-7-fluoro-2-hydroxy-3,4-dihydro-2H-benzo[e][1,2]oxaborinine-8-carboxylic acid] | 0.5 to 1 | 0.5 to 1 | < 0.25 | 0.5 to 1 | < 0.25 | 2 to 4 | 0.5 to 1 | 2 to 4 | 0.5 to 1 | 0.5 to 1 | 0.5 to 1 | 2 to 4
9 | NCCCN1CCN(C(=O)N[C@@H](C(=O)N[C@H]2Cc3cccc(C(=O)O)c3OB2O)c2ncc(O)cc2F)C(=O)C1=O [Example 252, (R)-3-((R)-2-(4-(3-aminopropyl)-2,3-dioxopiperazine-1-carboxamido)-2-(3-fluoro-5-hydroxypyridin-2-yl)acetamido)-2-hydroxy-3,4-dihydro-2H-benzo[e][1,2]oxaborinine-8-carboxylic acid] | 8 to 16 | 0.5 to 1 | < 0.25 | 2 to 4 | 8 to 16 | 32 to 64 | 0.5 to 1 | 32 to 64 | > 128 | 8 to 16 | 32 to 64 | 8 to 16
